Results taken from patent publication US20020137929A1, “1 - (3-heterocyclylphenyl) isothiourea, -isourea, -guanidine and -amidine herbicidal agents” (Intellectual Property Department, BASF Aktiengesellschaft, priority 1998, published 2002).

How the values were obtained:
ECHCG (Barnyardgrass) [1] = experiment: Postemergence herbicidal evaluation; format: in vivo, Echinochloa crus-galli; conditions: postemergence
Method: (§1) In the tests, seedling plants are grown in jiffy flats for about two weeks. The test compounds are dispersed in 50/50 acetone/water mixtures containing 0.5% TWEEN®20, a polyoxyethylene sorbitan monolaurate surfactant of Atlas Chemical Industries, in sufficient quantities to provide the equivalent of about 0.0156 kg to 0.500 kg per hectare of active compound when applied to the plants through a spray nozzle operating at 40 psi for a predetermined time. After spraying, the plants are placed on greenhouse benches and are cared for in accordance with conventional greenhouse procedures. From four to five weeks after treatment, the seedling plants are examined and rated according to the rating system set forth below. Where more than one test is involved for a given compound, the data are averaged.
(§2) Plant species employed in these evaluations are reported by header abbreviation, common name and scientific name.
(§3) Results of herbicide evaluation are expressed on a rating scale (0-9). The scale is based upon a visual observation of plant stand, vigor, malformation, size, chlorosis and overall plant appearance as compared with a control.

CYPIR (Rice Flatsedge) = experiment: Preemergence weed control under flooded paddy conditions; format: in vivo, Cyperus iria; conditions: rated 3-4 weeks after treatment
Method: as §3
(§4) Preemergence herbicidal activity under flooded paddy conditions is determined as follows: plant seeds or propagating organs are planted in the top 0.5 cm of silt loam soil in 32 oz. plastic containers with a diameter of 10.5 cm and no drainage holes. Water is added to these containers and maintained at 1.5 to 3 cm above the soil surface for the duration of the experiment. The test compounds are applied as aqueous/acetone mixtures 50/50 v/v pipetted directly into the flood water to give the equivalent of about 0.0313 to 0.500 kg/ha of active ingredient. The treated containers are placed on greenhouse benches and cared for in accordance with conventional greenhouse procedures. Three to four weeks after treatment, the test is terminated and each container is examined and herbicidal effect rated according to the rating system provided in Example 37. The compounds evaluated are reported by compound number given in Example 37.
(§5) Plant species employed in this example are reported by header abbreviation, common name and scientific name.

ORYSAT (Rice, Tebonnet) [2] = experiment: Postemergence herbicidal evaluation; format: in vivo, Oryza sativa, (L.) Tebonnet; conditions: postemergence
Method: as §1, §2, §3

AMBEL (Ragweed, Common) [3] = experiment: Postemergence herbicidal evaluation; format: in vivo, Ambrosia artemisifolia; conditions: postemergence
Method: as §1, §2, §3

[4] = tested on: GLXMAW (Soybean, Williams); experiment: Postemergence herbicidal evaluation; format: in vivo, Glycine max, (L.) Merr. cv Williams; conditions: postemergence
Method: as §1, §2, §3

MOOVA (Monochoria) = experiment: Preemergence weed control under flooded paddy conditions; format: in vivo, Monochoria vaginalis; conditions: rated 3-4 weeks after treatment
Method: as §3, §4, §5

ABUTH (Velvetleaf) [5] = experiment: Postemergence herbicidal evaluation; format: in vivo, Abutilon theophrasti; conditions: postemergence
Method: as §1, §2, §3

AMBEL (Ragweed, Common) [6] = experiment: Preemergence herbicidal evaluation; format: in vivo, Ambrosia artemisifolia; conditions: 0.2500 kg/ha, rated 4-5 weeks after treatment
Description: as §3
(§6) The preemergence herbicidal activity of the test compounds of the present invention is exemplified by the following tests in which the seeds of a variety of monocotyledonous and dicotyledonous plants are separately mixed with potting soil and planted on top of approximately one inch of soil in separate pint cups. After planting, the cups are sprayed with the selected aqueous acetone solution containing test compound in sufficient quantity to provide the equivalent of about 0.0156 to 0.500 kg per hectare of test compound per cup. The treated cups are then placed on greenhouse benches, watered and cared for in accordance with conventional greenhouse procedures. From four to five weeks after treatment, the tests are terminated and each cup is examined and rated according to the rating system provided in Example 37.
(§7) The compounds evaluated are reported by compound number given in Example 37.

GALAP (Galium) [7] = experiment: Postemergence herbicidal evaluation; format: in vivo, Galium aparine; conditions: postemergence
Method: as §1, §2, §3

ZEAMX (Corn, Field) [8] = experiment: Preemergence herbicidal evaluation; format: in vivo, Zea mays; conditions: 0.2500 kg/ha, rated 4-5 weeks after treatment
Description: as §3, §6, §7

[9] = tested on: ECHORC (Watergrass (Calif.)); experiment: Preemergence weed control under flooded paddy conditions; format: in vivo, Echinochloa oryzoides; conditions: rated 3-4 weeks after treatment
Method: as §3, §4, §5

[10] = tested on: IPOHE (Morningglory, Ivyleaf); experiment: Postemergence herbicidal evaluation; format: in vivo, Ipomoea hederacea; conditions: postemergence
Method: as §1, §2, §3

ORYSAT (Rice, Tebonnet) [11] = experiment: Preemergence herbicidal evaluation; format: in vivo, Oryza sativa, (L.) Tebonnet; conditions: 0.2500 kg/ha, rated 4-5 weeks after treatment
Description: as §3, §6, §7

ZEAMX (Corn, Field) [12] = experiment: Postemergence herbicidal evaluation; format: in vivo, Zea mays; conditions: postemergence
Method: as §1, §2, §3

GALAP (Galium) [13] = experiment: Preemergence herbicidal evaluation; format: in vivo, Galium aparine; conditions: 0.2500 kg/ha, rated 4-5 weeks after treatment
Description: as §3, §6, §7

ECHCG (Barnyardgrass) [14] = experiment: Preemergence herbicidal evaluation; format: in vivo, Echinochloa crus-galli; conditions: 0.2500 kg/ha, rated 4-5 weeks after treatment
Description: as §3, §6, §7

CASOB (Sicklepod) [15] = experiment: Postemergence herbicidal evaluation; format: in vivo, Cassia obtusifolia; conditions: postemergence
Method: as §1, §2, §3

[16] = tested on: SAGPY (Arrowhead (Pygmaea)); experiment: Preemergence weed control under flooded paddy conditions; format: in vivo, Sagittaria pygmaea; conditions: rated 3-4 weeks after treatment
Method: as §3, §4, §5

[17] = tested on: CHEAL (Lambsquarters, Common); experiment: Preemergence herbicidal evaluation; format: in vivo, Chenopodium album; conditions: 0.2500 kg/ha, rated 4-5 weeks after treatment
Description: as §3, §6, §7

SETVI (Foxtail, Green) [18] = experiment: Postemergence herbicidal evaluation; format: in vivo, Setaria viridis; conditions: postemergence
Method: as §1, §2, §3

[19] = tested on: GLXMAW (Soybean, Williams); experiment: Preemergence herbicidal evaluation; format: in vivo, Glycine max, (L.) Merr. cv Williams; conditions: 0.2500 kg/ha, rated 4-5 weeks after treatment
Description: as §3, §6, §7

[20] = tested on: CHEAL (Lambsquarters, Common); experiment: Postemergence herbicidal evaluation; format: in vivo, Chenopodium album; conditions: postemergence
Method: as §1, §2, §3

CYPSE (Flatsedge) = experiment: Preemergence weed control under flooded paddy conditions; format: in vivo, Cyperus serotinus; conditions: rated 3-4 weeks after treatment
Method: as §3, §4, §5

ABUTH (Velvetleaf) [21] = experiment: Preemergence herbicidal evaluation; format: in vivo, Abutilon theophrasti; conditions: 0.2500 kg/ha, rated 4-5 weeks after treatment
Description: as §3, §6, §7

CASOB (Sicklepod) [22] = experiment: Preemergence herbicidal evaluation; format: in vivo, Cassia obtusifolia; conditions: 0.2500 kg/ha, rated 4-5 weeks after treatment
Description: as §3, §6, §7

SETVI (Foxtail, Green) [23] = experiment: Preemergence herbicidal evaluation; format: in vivo, Setaria viridis; conditions: 0.2500 kg/ha, rated 4-5 weeks after treatment
Description: as §3, §6, §7

[24] = tested on: IPOHE (Morningglory, Ivyleaf); experiment: Preemergence herbicidal evaluation; format: in vivo, Ipomoea hederacea; conditions: 0.2500 kg/ha, rated 4-5 weeks after treatment
Description: as §3, §6, §7

[25] = tested on: TRZAWR (Wheat, Winter, cv Riband); experiment: Postemergence herbicidal evaluation; format: in vivo, Triticum aestivum; conditions: postemergence
Method: as §1, §2, §3

[26] = tested on: TRZAWR (Wheat, Winter, cv Riband); experiment: Preemergence herbicidal evaluation; format: in vivo, Triticum aestivum; conditions: 0.2500 kg/ha, rated 4-5 weeks after treatment
Description: as §3, §6, §7

CCOC(=O)CN1C(=O)CSC1=Nc1cc(N2C(=O)CC(C(F)(F)F)CC2=O)c(F)cc1Cl [Compound 169, Ethyl 2-{{2-chloro-5-[2,6-dioxo-4-(trifluoromethyl)piperidino]-4-fluorophenyl}imino}-4-oxo-3-thiazolidineacetate]
6.0: herbicidal effect rating, MOOVA (MOOVA (Monochoria); 0.0625 kg/ha) | herbicidal effect rating, MOOVA (MOOVA (Monochoria); 0.1250 kg/ha) | herbicidal rating ZEAMX (ZEAMX (Corn, Field) [12]; rate 0.0156 kg/ha) | herbicidal rating TRZAWR ([25]; rate 0.0313 kg/ha)
4.5: herbicidal rating TRZAWR ([25]; rate 0.0156 kg/ha)
2.0: herbicidal rating ECHCG (ECHCG (Barnyardgrass) [1]; rate 0.0156 kg/ha) | herbicidal effect rating, CYPIR (CYPIR (Rice Flatsedge); 0.2500 kg/ha) | herbicidal rating ORYSAT (ORYSAT (Rice, Tebonnet) [2]; rate 0.0625 kg/ha) | herbicidal effect rating, ECHORC ([9]; 0.2500 kg/ha)
7.0: herbicidal rating ECHCG (ECHCG (Barnyardgrass) [1]; rate 0.0625 kg/ha) | herbicidal effect rating, MOOVA (MOOVA (Monochoria); 0.2500 kg/ha) | herbicidal rating TRZAWR ([25]; rate 0.0625 kg/ha)
0.0: herbicidal effect rating, CYPIR (CYPIR (Rice Flatsedge); 0.0313 kg/ha) | herbicidal effect rating, CYPIR (CYPIR (Rice Flatsedge); 0.0625 kg/ha) | herbicidal effect rating, CYPIR (CYPIR (Rice Flatsedge); 0.1250 kg/ha) | herbicidal rating GALAP (GALAP (Galium) [7]; rate 0.0156 kg/ha) | herbicidal rating GALAP (GALAP (Galium) [7]; rate 0.0313 kg/ha) | herbicidal rating GALAP (GALAP (Galium) [7]; rate 0.0625 kg/ha) | Preemergence herbicidal rating ZEAMX (ZEAMX (Corn, Field) [8]) | herbicidal effect rating, ECHORC ([9]; 0.0313 kg/ha) | herbicidal effect rating, ECHORC ([9]; 0.0625 kg/ha) | herbicidal effect rating, ECHORC ([9]; 0.1250 kg/ha) | Preemergence herbicidal rating ORYSAT (ORYSAT (Rice, Tebonnet) [11]) | Preemergence herbicidal rating GALAP (GALAP (Galium) [13]) | Preemergence herbicidal rating ECHCG (ECHCG (Barnyardgrass) [14]) | herbicidal rating CASOB (CASOB (Sicklepod) [15]; rate 0.0156 kg/ha) | herbicidal effect rating, SAGPY ([16]; 0.0313 kg/ha) | herbicidal effect rating, SAGPY ([16]; 0.0625 kg/ha) | herbicidal effect rating, SAGPY ([16]; 0.1250 kg/ha) | herbicidal rating SETVI (SETVI (Foxtail, Green) [18]; rate 0.0156 kg/ha) | herbicidal rating CHEAL ([20]; rate 0.0156 kg/ha) | herbicidal effect rating, CYPSE (CYPSE (Flatsedge); 0.0313 kg/ha) | herbicidal effect rating, CYPSE (CYPSE (Flatsedge); 0.1250 kg/ha) | Preemergence herbicidal rating CASOB (CASOB (Sicklepod) [22]) | Preemergence herbicidal rating SETVI (SETVI (Foxtail, Green) [23]) | Preemergence herbicidal rating TRZAWR [26]
0.5: herbicidal rating ORYSAT (ORYSAT (Rice, Tebonnet) [2]; rate 0.0156 kg/ha)
7.5: herbicidal rating GLXMAW ([4]; rate 0.0625 kg/ha) | herbicidal rating ZEAMX (ZEAMX (Corn, Field) [12]; rate 0.0313 kg/ha)
8.5: herbicidal rating ZEAMX (ZEAMX (Corn, Field) [12]; rate 0.0625 kg/ha)
6.5: herbicidal rating GLXMAW ([4]; rate 0.0313 kg/ha)
9.0: herbicidal rating AMBEL (AMBEL (Ragweed, Common) [3]; rate 0.0156 kg/ha) | herbicidal rating AMBEL (AMBEL (Ragweed, Common) [3]; rate 0.0313 kg/ha) | herbicidal rating AMBEL (AMBEL (Ragweed, Common) [3]; rate 0.0625 kg/ha) | herbicidal rating ABUTH (ABUTH (Velvetleaf) [5]; rate 0.0156 kg/ha) | herbicidal rating ABUTH (ABUTH (Velvetleaf) [5]; rate 0.0313 kg/ha) | herbicidal rating ABUTH (ABUTH (Velvetleaf) [5]; rate 0.0625 kg/ha) | herbicidal rating IPOHE ([10]; rate 0.0156 kg/ha) | herbicidal rating IPOHE ([10]; rate 0.0313 kg/ha) | herbicidal rating IPOHE ([10]; rate 0.0625 kg/ha) | herbicidal rating SETVI (SETVI (Foxtail, Green) [18]; rate 0.0625 kg/ha)
4.0: herbicidal rating ECHCG (ECHCG (Barnyardgrass) [1]; rate 0.0313 kg/ha) | Preemergence herbicidal rating CHEAL [17] | herbicidal rating CHEAL ([20]; rate 0.0625 kg/ha)
1.0: herbicidal rating ORYSAT (ORYSAT (Rice, Tebonnet) [2]; rate 0.0313 kg/ha) | herbicidal rating CASOB (CASOB (Sicklepod) [15]; rate 0.0313 kg/ha)
5.0: herbicidal rating GLXMAW ([4]; rate 0.0156 kg/ha) | herbicidal effect rating, MOOVA (MOOVA (Monochoria); 0.0313 kg/ha) | herbicidal rating SETVI (SETVI (Foxtail, Green) [18]; rate 0.0313 kg/ha) | Preemergence herbicidal rating ABUTH (ABUTH (Velvetleaf) [21])
3.0: Preemergence herbicidal rating AMBEL (AMBEL (Ragweed, Common) [6]) | herbicidal rating CASOB (CASOB (Sicklepod) [15]; rate 0.0625 kg/ha) | herbicidal effect rating, SAGPY ([16]; 0.2500 kg/ha) | Preemergence herbicidal rating GLXMAW [19] | herbicidal rating CHEAL ([20]; rate 0.0313 kg/ha) | Preemergence herbicidal rating IPOHE [24]
